Test results as given in patent CN113018415A, “一种新的药物组合及其应用” (priority 2021, dated 2021).
Peptide text beside a SMILES is read from it. * marks the point of attachment. Cbz = O=C(OCc1ccccc1)*

Tests used:
急性早幼粒白血病细胞NB4 [1] = assay: Mouse APL model: flow cytometry of bone marrow cells for human CD33+; type: in vivo, NOD/SCID小鼠; conditions: moribund mice, bone marrow cultured 24 h; oprozomib 0.43 mg/kg iv, arsenic trioxide 1.53 mg/kg iv; compared with positive control; Fig. 8-12
急性早幼粒白血病细胞HL-60 = assay: MTT cell survival assay, HL-60 cells; type: cell-based; conditions: HL-60, MTT, 48 h; arsenic trioxide 0.4-2 μM, oprozomib 40-200 nM, alone or combined (fixed 160 nM oprozomib or fixed 1.2 μM arsenic trioxide); Fig. 3, 4
人肝癌细胞SMMC-7721 = assay: MTT cell survival assay, SMMC-7721 cells; type: cell-based, 人; conditions: SMMC-7721, MTT, 48 h; arsenic trioxide 0.4 μM, oprozomib 40 nM, alone or combined; Fig. 5
急性早幼粒白血病细胞NB4 [2] = assay: Mouse APL model: HE staining of liver and spleen sections; type: in vivo, NOD/SCID小鼠; conditions: oprozomib 0.43 mg/kg iv, arsenic trioxide 1.53 mg/kg iv; compared with control group; Fig. 13
急性早幼粒白血病细胞NB4 [3] = assay: MTT cell survival assay, NB4 cells; type: cell-based; conditions: 48 h; for 细胞存活率 (cell survival rate): arsenic trioxide 0.1-0.5 μM, oprozomib 5-40 nM, alone or combined (fixed 40 nM oprozomib or fixed 0.4 μM arsenic trioxide), Fig. 1, 2; for Enhancement of the cancer cell inhibition of arsenic trioxide by a proteasome inhibitor: proteasome inhibitor fixed 40 nM combined with arsenic trioxide 0.1-0.5 μM, Fig. 6
急性早幼粒白血病细胞NB4 [4] = assay: Mouse APL model: CD33 immunohistochemistry of liver and spleen sections; type: in vivo, NOD/SCID小鼠; conditions: oprozomib 0.43 mg/kg iv, arsenic trioxide 1.53 mg/kg iv; compared with control group; Fig. 14
慢性髓性白血病细胞K562 = assay: MTT cell survival assay, K562 cells; type: cell-based; conditions: 48 h, arsenic trioxide 0.4 μM, oprozomib 40 nM, alone or combined, Fig. 5
人结直肠腺癌细胞CaCo-2 = assay: MTT cell survival assay, CaCo-2 cells; type: cell-based, 人; conditions: CaCo-2, MTT, 48 h; arsenic trioxide 0.4 μM, oprozomib 40 nM, alone or combined; Fig. 5

Which results are given for COC[C@H](NC(=O)c1cnc(C)s1)C(=O)N[C@@H](COC)C(=O)N[C@@H](Cc1ccccc1)C(=O)[C@@]1(C)CO1 [奥普佐米]?
Human CD33+ positive cells in mouse bone marrow (急性早幼粒白血病细胞NB4 [1]): 有所减少; 细胞存活率 (cell survival rate) (急性早幼粒白血病细胞HL-60): 无明显影响; 细胞存活率 (cell survival rate) (人肝癌细胞SMMC-7721): 无明显影响; Infiltrating tumour cells in liver and spleen (HE staining) (急性早幼粒白血病细胞NB4 [2]): 略有减少但不明显; 细胞存活率 (cell survival rate) (急性早幼粒白血病细胞NB4 [3]): 无明显影响; Enhancement of the cancer cell inhibition of arsenic trioxide by a proteasome inhibitor (急性早幼粒白血病细胞NB4 [3]): 能极大地提升三氧化二砷的癌细胞抑制效果; Human CD33 expression in liver and spleen sections (immunohistochemistry) (急性早幼粒白血病细胞NB4 [4]): 略有减少但不明显; 细胞存活率 (cell survival rate) (慢性髓性白血病细胞K562): 无明显影响; 细胞存活率 (cell survival rate) (人结直肠腺癌细胞CaCo-2): 无明显影响

For CC(C)C[C@@H](C=O)NC(=O)[C@H](CC(C)C)NC(=O)[C@H](CC(C)C)NC(=O)OCc1ccccc1 [MG132] (Cbz-Leu-Leu-Leu-aldehyde), which “Enhancement of the cancer cell inhibition of arsenic trioxide by a proteasome inhibitor” value (急性早幼粒白血病细胞NB4 [3]) is on record?
Its value is “并不能增加三氧化二砷的癌细胞抑制效果”.

How did the “Human CD33+ positive cells in mouse bone marrow” value (急性早幼粒白血病细胞NB4 [1]) turn out when O=[As][As+](=O)[O-] (stereo not drawn) [三氧化二砷] was run?
The value was “有所减少”.

And the “细胞存活率 (cell survival rate)” value (急性早幼粒白血病细胞HL-60)?
The value was “无明显影响”.

And the “细胞存活率 (cell survival rate)” value (人肝癌细胞SMMC-7721)?
Its value is “无明显影响”.

And the “Infiltrating tumour cells in liver and spleen (HE staining)” value (急性早幼粒白血病细胞NB4 [2])?
The value was “略有减少但不明显”.

And the “细胞存活率 (cell survival rate)” value (急性早幼粒白血病细胞NB4 [3])?
Its value is “无明显影响”.

What about the “Human CD33 expression in liver and spleen sections (immunohistochemistry)” value (急性早幼粒白血病细胞NB4 [4]) of the same compound?
The value was “略有减少但不明显”.

What about the “细胞存活率 (cell survival rate)” value (慢性髓性白血病细胞K562) of the same compound?
Its value is “无明显影响”.

What about the “细胞存活率 (cell survival rate)” value (人结直肠腺癌细胞CaCo-2) of the same compound?
Its value is “无明显影响”.
